Consider 2 compounds from publication PMC10217311 (Gels, 2023).

Converted amounts (≈) assume the structure as drawn.

The conditions of series [1]: for T5%, decomposition temperature, 5% weight loss of the initial mass / T50%, decomposition temperature, 50% weight loss of the initial mass: TG, oxidative conditions. The method, then:
The thermal stability of drugs is an essential property necessary to control the formulation method of the finished drug. […] Both the temperature at which decomposition begins (Tonset) and the temperature at which mass loss accelerates to its maximum (Tmax) were identified. […]
XRD, thermal stability (TG), phase transition temperatures (DSC), specific rotation, solubility in water, and lipophilicity were also determined. […]
Thermal stability was assessed using thermogravimetric analyses performed on a Netzsch thermomicrobalance TG 209 F1 Libra. The analysis was conducted under oxidative conditions, with a nitrogen flow (as protective gas) of 10 mL/min, an airflow of 25 mL/min, and a temperature range of 25 to 1000 °C. Samples of roughly 5 mg weight were heated at 10°/min. The onset decomposition temperature was calculated using the intersection of TG curve tangents. The temperatures associated with the quickest sample weight loss were calculated using the first derivative of the TG curve (DTG curve). […]

The nature of series [2]: physchem. How it is done:
Lipophilicity is essential for predicting the hydrophobicity and partitioning of drugs in biological systems. Therefore, the test was prepared using the shake-flask method.

The nature of series [3]: physchem. How it is done: The following oils were used in the research: hemp oil, evening primrose oil, and sunflower oil, as well as the following surfactants: Tween 40, Tween 60, Span 80, and Tween 80. […] The study was carried out in screw-cap vials with continuous magnetic stirring at 100 rpm at 25 °C for 48 h. A supersaturated solution was obtained and filtered through a syringe filter with MCE (Mixed Cellulose Ester) membrane (0.45 µm, ⌀ 47 mm). The content of the compound in the solution was determined by HPLC. The HPLC analyses were performed using a Shimadzu (Kyoto, Japan) Nexera-i LC-2040C 3D High Plus liquid chromatograph equipped with a DAD/FLD detector and Kinetex® F5 column 100 Å ([…]; 150 × 4.6 mm; Phenomenex, Torrance, CA, USA) maintained at 35 °C. The mixture of acetonitrile and water 60/40 (v/v) was used as the mobile phase under isocratic conditions, with a flow rate of 0.5 mL/min. The detection wavelength was 210 nm. The collected data were acquired and processed using LabSolutions/LC Solution System. Each measurement was performed in triplicate, and the results were averaged.
The source holds these as a separate data set.

A short description of series [4]: Permeation of the active substance through the skin, Franz diffusion cell. The class given is in vitro ADME, pig. The settings on record: 24 h permeation test; abstract prints human skin. The text has this: The steady-state flux was estimated from the slope of the linear portion of the plot of cumulative mass in the acceptor phase over time.

In the case of `CC(C)Cc1ccc(C(C)C(=O)[O-])cc1.[Na+]` (stereo not drawn) [IBUNa, sodium ibuprofenate], in series [1], the “Tonset, the onset temperature of the thermal degradation” value stood at 265.4 °C; the “T5%, decomposition temperature, 5% weight loss of the initial mass” value amounted to 285.4 °C; the “T50%, decomposition temperature, 50% weight loss of the initial mass” value was 445.1 °C.
Broadly, the logP is a log measure of how a compound divides between an organic and an aqueous phase. The low end stands for lower lipophilicity, the high end for higher lipophilicity. As usually defined, the solubility is how much of the substance goes into solution per volume. The low end stands for little dissolved substance, the high end for much dissolved substance. In general, Solubility refers to the dissolved amount per volume that the medium holds. A low value points to little dissolved substance. As to `CC(C)Cc1ccc(C(C)C(=O)O)cc1` (stereo not drawn) [IBU, ibuprofen], in series [1], the “Tonset, the onset temperature of the thermal degradation” value amounted to 193.2 °C. In series [1], the “T5%, decomposition temperature, 5% weight loss of the initial mass” value turned out to be 162.1 °C. Moreover, the “T50%, decomposition temperature, 50% weight loss of the initial mass” value in series [1] was determined as 210.3 °C. Further, in “physchem [2]”, the logP is 2.758 ± 0.014. The solubility at 48 h in “physchem [3]” (Span 80, 25 °C, aqueous with cosolvent or surfactant or cyclodextrin, thermodynamic from solid) amounted to 56.89 ± 0.15 mg/mL (≈ 276 mM); in the series “physchem [3]” (Tween 40) it was 466.1 ± 1.71 mg/mL (≈ 2260 mM); in “physchem [3]” (Tween 60, 25 °C, aqueous with cosolvent or surfactant or cyclodextrin, thermodynamic from solid), 519.6 ± 0.69 mg/mL (≈ 2520 mM); in “physchem [3]” (Tween 80) it was 411 ± 4.18 mg/mL (≈ 1990 mM); in “physchem [3]” (evening primrose oil, 25 °C, oil or lipid, thermodynamic from solid), 76.74 ± 0.35 mg/mL (≈ 372 mM); in “physchem [3]” (hemp oil) it was 95.44 ± 0.03 mg/mL (≈ 463 mM). In the series “physchem [3]” (in Sunflower oil, 25 °C, mean ± S.D., n = 3), this compound displayed a Solubility of 65.10 ± 1.92 mg/mL (≈ 316 mM). In addition, the “Average cumulative mass of IBU after 24 h from emulsion-based gel, times higher than commercial products” value in series [4] was 1.6–4.0 times.
